Measurements published in patent publication US20120230951A1 (priority 2011, published 2012).

Assays:
[1] = tested on: HCV GT1b replicon (2209-23 cell line, GT-1b Con1 subgenomic replicon in Huh-7); test: HCV GT1b replicon luciferase reporter assay; assay type: cell-based; conditions: Hepatitis C virus, Huh-7, 2209-23 cells (GT-1b Con1), Renilla luciferase read 72 hours after addition of compounds; for IC50: read-out: GT-1b (IC50)
Description: Determination of compounds HCV GT1b inhibitory replicon activity using the replicon luciferase reporter assay
The 2209-23 cell line was developed at Roche by stable transfection of the hepatoma cell line Huh-7 with a GT-1b Con1 subgenomic bicistronic replicon as previously described. Subgenomic replicon cell line was established in cured Huh7 cells, obtained from R. Bartenschlager (J. Virol. 2003 March; 77 (5):3007-19) The GT-1a H77 subgenomic replicon vector pRLuc H771b 75 S/I, was created by replacing the non structural region of the GT-1b Con1 subgenomic replicon by the one of the H77 strain, except for the first 75 amino acids of the NS3 protein that are from GT-1b Con1 strain. (J. Virol. 2001 77:5352-59) The GT-1a pRLuc H771b 75 S/I subgenomic replicon cell line was established in cured Huh7 cells, obtained from R. Bartenschlager. (J. Virol. 2003 March; 77 (5):3007-19)
All the subgenomic replicon cell lines were cultured in Dulbecco's Modified Eagle Medium (DMEM-Glutamax™-I; Invitrogen Cat #10569-010). The medium was supplemented with 10% Fetal Bovine Serum (Invitrogen Cat #10082-147), 1% penicillin/streptomycin (Mediatech Cat #30-002-CI) and 500 μg/ml of G418 (Mediatech Cat #30-234-CI). Cells were maintained at 37° C. in a humidified 5% CO2 atmosphere.
2209-23 cells were plated at a cell density of 5000 cells per well in 96 well plates (Becton Dickinson, Cat #35 3296). Cells were plated in 90 μl of Dulbecco's Modified Eagle Medium (DMEM-Glutamax™-I), (Invitrogen Cat #10569-010) medium was supplemented with 5% Fetal Bovine Serum (Invitrogen Cat #10082-147), 1% penicillin/streptomycin (Mediatech Cat #30-002-CI). The pRluc H771b 75 S/I cells were plated in 96-well plate at 3000 cells/well in DMEM-Glutamax™-I containing 5% FBS and 1% penicillin/streptomycin in 90 μl final volume. Cells were allowed to equilibrate for 24 hours at 37° C. and 5% CO2 at which time compounds were added. Compounds (or medium as a control) were added 24 hours post-plating in 3 fold dilutions at a final DMSO concentration of 1% in 10 ul volume. Renilla luciferase reporter signal was read 72 hours after addition of compounds using the Renilla Luciferase Assay System (Promega, cat #E2820). EC50 values were defined as the compound concentration at which a 50% reduction in the levels of renilla luciferase reporter was observed as compared to control samples in the absence of compound and was determined by non-linear fitting of compound dose-response data. The EC50 was approximated if maximum percentage inhibition was less than 90% and more than 70%.

[2] = tested on: GT-1a pRLuc H771b 75 S/I subgenomic replicon cell line; test: HCV GT-1a replicon luciferase reporter assay; assay type: cell-based; conditions: Hepatitis C virus, GT1A, 72 h, read-out: GT-1a (IC50) (nM)
Procedure, shortened: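 Huh-7-derived subgenomic replicon cells (GT-1b Con1 2209-23, 5000/well; GT-1a H77 chimera with Con1 NS3 first 75 aa, 3000/well) in 5% FBS DMEM; compounds added 24 h post-plating, 3-fold dilutions, 1% DMSO. Renilla luciferase read after 72 h; EC50 is 50% signal reduction versus untreated, non-linear fit.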

Row | Structure (SMILES) | IC50 [1] [nM] | IC50 [2] [nM] | EC50 [1] [nM]
1 | COC(=O)NC(C(=O)N1CCCC1c1ncc(-c2ccc(-c3ccc(-c4cnc([C@@H]5Cc6cc(Br)cc7c6N5C(=O)[C@@H](NC(=O)OC)CC7)[nH]4)cc3)cc2)[nH]1)C(C)C (stereo in doubt) [Compound I-25, {(2S,5S)-9-Bromo-2-[5-(4′-{2-[(R)-1-((R)-2-methoxycarbonylamino-3-methyl-butyryl)-pyrrolidin-2-yl]-3H-imidazol-4-yl}-biphenyl-4-yl)-1H-imidazol-2-yl]-4-oxo-1,2,4,5,6,7-hexahydro-azepino[3,2,1-hi]indol-5-yl}-carbamic acid methyl ester] | 1.21 | 31.2 | –
2 | COC(=O)N[C@H]1CCc2cccc3c2N(C1=O)[C@H](c1nc2ccc(-c4ccc(-c5ccc6nc([C@@H]7CCCN7C(=O)[C@@H](NC(=O)OC)C(C)C)[nH]c6c5)cc4)cc2[nH]1)C3 [Compound I-5, {(2S,5S)-2-[6-(4-{2-[(S)-1-((S)-2-Methoxycarbonylamino-3-methyl-butyryl)-pyrrolidin-2-yl]-3H-benzoimidazol-5-yl}-phenyl)-1H-benzoimidazol-2-yl]-4-oxo-1,2,4,5,6,7-hexahydro-azepino[3,2,1-hi]indol-5-yl}-carbamic acid methyl ester] | 0.093 | 49.8 | –
3 | COC(=O)N[C@H]1CCc2cccc3c2N(C1=O)[C@H](c1nc2ccc(-c4ccc5nc(-c6ccc7nc([C@@H]8CCCN8C(=O)[C@@H](NC(=O)OC)C(C)C)[nH]c7c6)cnc5c4)cc2[nH]1)C3 [Compound I-6] | 0.2 | 17.5 | –
4 | COC(=O)N[C@H]1CCc2cccc3c2N(C1=O)[C@H](c1ncc(-c2ccc(-c4ccc(-c5cnc(C6CC7(CCOCC7)CN6C(=O)[C@@H](NC(=O)OC)C(C)C)[nH]5)cc4)cc2)[nH]1)C3 (stereo partly drawn) [Compound I-9, {(2S,5S)-2-[5-(4′-{2-[2-((S)-2-Methoxycarbonylamino-3-methyl-butyryl)-8-oxa-2-aza-spiro[4.5]dec-3-yl]-3H-imidazol-4-yl}-biphenyl-4-yl)-1H-imidazol-2-yl]-4-oxo-1,2,4,5,6,7-hexahydro-azepino[3,2,1-hi]indol-5-yl}-carbamic acid methyl ester] | 0.03 | 3.36 | –
5 | COC(=O)N[C@H]1CCc2cccc3c2N(C1=O)[C@H](c1nc2ccc(-c4ccc(-c5cnc([C@@H]6CCCN6C(=O)[C@@H](NC(=O)OC)C(C)C)[nH]5)cc4)cc2[nH]1)C3 [Compound I-10, {(2S,5S)-2-[6-(4-{2-[(S)-1-((S)-2-Methoxycarbonylamino-3-methyl-butyryl)-pyrrolidin-2-yl]-3H-imidazol-4-yl}-phenyl)-1H-benzoimidazol-2-yl]-4-oxo-1,2,4,5,6,7-hexahydro-azepino[3,2,1-hi]indol-5-yl}-carbamic acid methyl ester] | 0.1 | 43.3 | –
6 | COC(=O)N[C@H]1CCc2cccc3c2N(C1=O)[C@H](c1ncc(-c2ccc(-c4ncc(-c5cnc([C@@H]6CC(F)(F)CN6C(=O)[C@@H](NC(=O)OC)C(C)C)[nH]5)cn4)cc2)[nH]1)C3 [Compound I-57, ((2S,5S)-2-{4-[4-(5-{2-[(S)-4,4-Difluoro-1-(2-methoxycarbonylamino-3-methyl-butyryl)-pyrrolidin-2-yl]-3H-imidazol-4-yl}-pyrimidin-2-yl)-phenyl]-1H-imidazol-2-yl}-4-oxo-1,2,4,5,6,7-hexahydro-azepino[3,2,1-hi]indol-5-yl)-carbamic acid methyl ester] | – | 17.1 | –
7 | CC[C@H](C)[C@H](NC(=O)OC)C(=O)N1CC(F)(F)C[C@H]1c1ncc(-c2cnc(-c3ccc(-c4cnc([C@@H]5Cc6cccc7c6N5C(=O)[C@@H](NC(=O)OC)CC7)[nH]4)cc3)nc2)[nH]1 [Compound I-58, ((1S,2S)-1-{(S)-4,4-Difluoro-2-[5-(2-{4-[2-((2S,5S)-5-methoxycarbonylamino-4-oxo-1,2,4,5,6,7-hexahydro-azepino[3,2,1-hi]indol-2-yl)-1H-imidazol-4-yl]-phenyl}-pyrimidin-5-yl)-1H-imidazol-2-yl]-pyrrolidine-1-carbonyl}-2-methyl-butyl)-carbamic acid methyl ester] | – | 26.1 | –
8 | COC(=O)N[C@H]1CCc2cccc3c2N(C1=O)[C@H](c1ncc(-c2ccc(-c4ccc(-c5nnc([C@@H]6CCCN6C(=O)[C@H](NC(=O)OC)c6ccccc6)[nH]5)cc4)cc2)[nH]1)C3 [Compound I-60, {(2S,5S)-2-[5-(4′-{5-[(S)-1-((R)-2-Methoxycarbonylamino-2-phenyl-acetyl)-pyrrolidin-2-yl]-4H-[1,2,4]triazol-3-yl}-biphenyl-4-yl)-1H-imidazol-2-yl]-4-oxo-1,2,4,5,6,7-hexahydro-azepino[3,2,1-hi]indol-5-yl}-carbamic acid methyl ester] | – | 51.4 | –
9 | COC(=O)N[C@H]1CCc2cccc3c2N(C1=O)[C@H](c1ncc(-c2ccc(-c4ccc(-c5nnc([C@@H]6CCCN6C(=O)[C@@H](NC(=O)OC)C(C)C)[nH]5)cc4)cc2)[nH]1)C3 [Compound I-61, {(2S,5S)-2-[5-(4′-{5-[(S)-1-((S)-2-Methoxycarbonylamino-3-methyl-butyryl)-pyrrolidin-2-yl]-4H-[1,2,4]triazol-3-yl}-biphenyl-4-yl)-1H-imidazol-2-yl]-4-oxo-1,2,4,5,6,7-hexahydro-azepino[3,2,1-hi]indol-5-yl}-carbamic acid methyl ester] | – | 67.2 | –
10 | COC(=O)N[C@H]1CCc2cccc3c2N(C1=O)[C@H](c1ncc(-c2ccc(-c4ccc(-c5cnc([C@@H]6COCCN6C(=O)[C@@H](NC(=O)OC)C(C)C)[nH]5)cc4)cc2)[nH]1)C3 [Compound I-64, {(2S,5S)-2-[5-(4′-{2-[(R)-4-((S)-2-Methoxycarbonylamino-3-methyl-butyryl)-morpholin-3-yl]-3H-imidazol-4-yl}-biphenyl-4-yl)-1H-imidazol-2-yl]-4-oxo-1,2,4,5,6,7-hexahydro-azepino[3,2,1-hi]indol-5-yl}-carbamic acid methyl ester] | – | 9.87 | –
11 | COC(=O)N[C@H]1CCc2cccc3c2N(C1=O)[C@H](c1ncc(-c2ccc(-c4ccc(-c5cnc(C6C7CC7CN6C(=O)[C@H](NC(=O)OC)c6ccccc6)[nH]5)cc4)cc2)[nH]1)C3 (stereo partly drawn) [Compound I-65, {(2S,5S)-2-[5-(4′-{2-[(S)-3-((R)-2-Methoxycarbonylamino-2-phenyl-acetyl)-3-aza-bicyclo[3.1.0]hex-2-yl]-3H-imidazol-4-yl}-biphenyl-4-yl)-1H-imidazol-2-yl]-4-oxo-1,2,4,5,6,7-hexahydro-azepino[3,2,1-hi]indol-5-yl}-carbamic acid methyl ester] | – | 67.2 | –
12 | COC(=O)N[C@H]1CCc2cccc3c2N(C1=O)[C@H](c1ncc(-c2ccc(-c4ccc(-c5cnc([C@@H]6CCCN6C(=O)[C@@H](NC(=O)OC)C(C)C)[nH]5)cc4)cc2)[nH]1)C3 [Compound I-66, {(2S,5S)-2-[5-(4′-{2-[(S)-1-((S)-2-Methoxycarbonylamino-3-methyl-butyryl)-pyrrolidin-2-yl]-3H-imidazol-4-yl}-biphenyl-4-yl)-1H-imidazol-2-yl]-4-oxo-1,2,4,5,6,7-hexahydro-azepino[3,2,1-hi]indol-5-yl}-carbamic acid methyl ester] | – | – | 0.036
13 | COC(=O)N[C@H]1CCc2cccc3c2N(C1=O)[C@H](c1ncc(-c2ccc(-c4ccc(-c5cnc([C@@H]6CCCN7C(=O)CC[C@H](NC(=O)OC)C(=O)N67)[nH]5)cc4)cc2)[nH]1)C3 [Compound I-67] | – | – | 0.528
14 | COC(=O)N[C@H]1CCc2cccc3c2N(C1=O)[C@H](c1nc2ccc(-c4ccc5cc(-c6cnc([C@@H]7CCCN7C(=O)[C@@H](NC(=O)OC)C(C)C)[nH]6)ccc5c4)cc2[nH]1)C3 [Compound I-68] | – | – | 0.062
